Laboratory results reported in paper PMC5241706, “Biochemical and Structural Characterization of Selective Allosteric Inhibitors of the Plasmodium falciparum Drug Target, Prolyl-tRNA-synthetase” (ACS Infectious Diseases, 2016).
pIC50: −log10 of the molar value. Read-outs that look alike come from different tables or passages of the source.

Assays:
[1] = biological target: T1, HsProRS (Homo sapiens, UniProt P07814); assay: luciferase ATP depletion assay, counter-screen; format: biochemical; conditions: for inhibition at 2.5 µM: at 2.50 μM (22.50 μM series); for inhibition at 7.5 µM: at 7.50 μM; for inhibition at 22.5 µM: at 22.50 μM; for inhibition at 187.5 µM: at 187.50 μM
T1 construct: made in house
T1 sequence (P07814 1007-1512 limits assumed): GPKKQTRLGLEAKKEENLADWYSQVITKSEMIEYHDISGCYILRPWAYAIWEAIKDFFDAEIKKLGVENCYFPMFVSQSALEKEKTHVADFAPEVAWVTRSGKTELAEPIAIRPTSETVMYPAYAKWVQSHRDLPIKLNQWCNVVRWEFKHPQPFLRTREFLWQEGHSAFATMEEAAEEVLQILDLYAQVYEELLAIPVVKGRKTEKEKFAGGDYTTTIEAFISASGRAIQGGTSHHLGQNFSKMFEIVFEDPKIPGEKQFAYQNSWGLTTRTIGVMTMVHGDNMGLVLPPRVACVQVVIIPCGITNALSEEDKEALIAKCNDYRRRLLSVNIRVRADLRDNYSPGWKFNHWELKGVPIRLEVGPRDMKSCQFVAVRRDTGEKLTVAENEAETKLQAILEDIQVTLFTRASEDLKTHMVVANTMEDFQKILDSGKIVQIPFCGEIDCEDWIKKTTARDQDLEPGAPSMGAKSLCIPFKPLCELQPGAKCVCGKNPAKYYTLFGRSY

[2] = biological target: T2, PfProRS (Plasmodium falciparum, UniProt Q8I5R7); assay: luciferase ATP depletion assay, HTS format; format: biochemical
T2 construct: B2, AA7–746 (minus 6 amino acids, or 99% of the ORF); made in house; host or cells: E. coli BL21(DE3)R3 Rosetta Oxford
T2 sequence (Q8I5R7 7-746): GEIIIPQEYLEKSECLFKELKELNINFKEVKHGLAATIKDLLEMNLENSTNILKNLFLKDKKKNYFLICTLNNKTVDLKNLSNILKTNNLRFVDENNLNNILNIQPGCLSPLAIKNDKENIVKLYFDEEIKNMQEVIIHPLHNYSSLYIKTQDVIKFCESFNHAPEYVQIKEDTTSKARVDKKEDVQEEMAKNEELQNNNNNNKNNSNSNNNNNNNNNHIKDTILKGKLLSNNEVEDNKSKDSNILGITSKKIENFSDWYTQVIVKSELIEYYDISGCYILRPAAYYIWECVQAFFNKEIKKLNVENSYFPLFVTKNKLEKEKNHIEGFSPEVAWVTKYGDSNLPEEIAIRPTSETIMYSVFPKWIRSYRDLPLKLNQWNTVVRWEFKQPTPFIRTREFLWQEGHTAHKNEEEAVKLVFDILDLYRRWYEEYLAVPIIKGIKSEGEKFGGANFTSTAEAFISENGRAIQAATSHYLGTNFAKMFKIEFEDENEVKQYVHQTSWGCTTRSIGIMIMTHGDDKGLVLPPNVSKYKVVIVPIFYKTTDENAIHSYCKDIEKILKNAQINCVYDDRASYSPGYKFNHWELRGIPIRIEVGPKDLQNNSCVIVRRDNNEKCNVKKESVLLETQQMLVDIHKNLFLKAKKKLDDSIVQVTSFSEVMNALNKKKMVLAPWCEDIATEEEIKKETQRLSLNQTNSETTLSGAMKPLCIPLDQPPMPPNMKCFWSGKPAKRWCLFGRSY

[3] = at 0.03 μM (22.50 μM series), read-out: Percentage inhibition Hs ProRS
[4] = read-out: Percentage inhibition Hs ProRS
[5] = read-out: Percentage inhibition Pf ProRS
[6] = at 1.46 μM (750 μM series), read-out: Percentage inhibition Hs ProRS

CCCCC(N)COc1cccc2c(-c3ccncc3)c(-c3cccc(NC(=O)Nc4ccccc4)c3)nn12 (stereo not drawn) [TCMDC-135537]
inhibition at 0.03 µM [1, 3]: -0.2%
inhibition at 0.09 µM [1, 4]: -0.49%
inhibition at 0.28 µM [1, 4]: 0.03%
inhibition at 0.83 µM [1, 4]: 0.8%
inhibition at 2.5 µM [1, 4]: 0%
inhibition at 7.5 µM [1, 4]: 0.28%
inhibition at 22.5 µM [1, 4]: 0.55%
inhibition at 0.28 µM [2, 5]: -1.18%
inhibition at 0.03 µM [2, 5]: -1.72%
inhibition at 0.09 µM [2, 5]: -1.11%
inhibition at 0.83 µM [2, 5]: 1.73%
inhibition at 2.5 µM [2, 5]: 11.7%
inhibition at 7.5 µM [2, 5]: 39%
inhibition at 22.5 µM [2, 5]: 84.8%

Cc1c(Nc2ncccc2C(=O)O)cccc1C(F)(F)F [flunixin meglumine]
inhibition at 0.73 µM [1, 4]: 0.21%
inhibition at 1.46 µM [1, 6]: 0.19%
inhibition at 2.93 µM [1, 4]: 0.2%
inhibition at 5.86 µM [1, 4]: 0.17%
inhibition at 11.72 µM [1, 4]: 0.37%
inhibition at 23.44 µM [1, 4]: 0.52%
inhibition at 46.88 µM [1, 4]: 0.27%
inhibition at 93.75 µM [1, 4]: -0.02%
inhibition at 187.5 µM [1, 4]: 0.03%
inhibition at 375 µM [1, 4]: 0.43%
inhibition at 750 µM [1, 4]: 1.37%
inhibition at 0.73 µM [2, 5]: 0.6%
inhibition at 1.46 µM [2, 5]: -0.28%
inhibition at 2.93 µM [2, 5]: -0.7%
inhibition at 5.86 µM [2, 5]: -0.41%
inhibition at 11.72 µM [2, 5]: 1.63%
inhibition at 23.44 µM [2, 5]: 2.17%
inhibition at 46.88 µM [2, 5]: 11.4%
inhibition at 93.75 µM [2, 5]: 30.7%
inhibition at 187.5 µM [2, 5]: 62%
inhibition at 375 µM [2, 5]: 87.1%
inhibition at 750 µM [2, 5]: 99.8%

O=C(CCn1cncn1)N1CCCC(c2[nH]c3ccccc3c2-c2ccncc2)C1 (stereo not drawn) [TCMDC-125377]
inhibition at 0.03 µM [1, 3]: 0.18%
inhibition at 0.09 µM [1, 4]: -0.1%
inhibition at 0.28 µM [1, 4]: -0.22%
inhibition at 0.83 µM [1, 4]: -0.91%
inhibition at 2.5 µM [1, 4]: -0.37%
inhibition at 7.5 µM [1, 4]: 0.2%
inhibition at 22.5 µM [1, 4]: 0.03%
inhibition at 0.28 µM [2, 5]: 6.8%
inhibition at 0.03 µM [2, 5]: 1.17%
inhibition at 0.09 µM [2, 5]: 2.41%
inhibition at 0.83 µM [2, 5]: 15.4%
inhibition at 2.5 µM [2, 5]: 24.7%
inhibition at 7.5 µM [2, 5]: 33.9%
inhibition at 22.5 µM [2, 5]: 40.1%

COc1ccc(Cl)cc1C(=O)NCCc1ccc(S(=O)(=O)NC(=O)NC2CCCCC2)cc1 [glyburide]
pIC50 [1]: < 3.15
inhibition at 0.73 µM [1, 4]: 0.05%
inhibition at 1.46 µM [1, 6]: 0.03%
inhibition at 2.93 µM [1, 4]: -0.04%
inhibition at 5.86 µM [1, 4]: 0.29%
inhibition at 11.72 µM [1, 4]: 0.01%
inhibition at 23.44 µM [1, 4]: 0.12%
inhibition at 46.88 µM [1, 4]: 0.36%
inhibition at 93.75 µM [1, 4]: 1.41%
inhibition at 187.5 µM [1, 4]: 4.93%
inhibition at 375 µM [1, 4]: 15.1%
inhibition at 750 µM [1, 4]: 36.1%
inhibitory activity for HsProRS ([1]; up to the limit of solubility (>1 mM)): < 40%
pIC50 ([2]; PfProRS IC50, 75 nM ProRS, 60 μM proline, 6 μM ATP, 400 μg/mL yeast tRNA, 2 h 37 °C): 4.47
inhibition at 0.73 µM [2, 5]: 1.32%
inhibition at 1.46 µM [2, 5]: 1.82%
inhibition at 2.93 µM [2, 5]: 6.24%
inhibition at 5.86 µM [2, 5]: 12.4%
inhibition at 11.72 µM [2, 5]: 23.8%
inhibition at 23.44 µM [2, 5]: 39.7%
inhibition at 46.88 µM [2, 5]: 60%
inhibition at 93.75 µM [2, 5]: 81.4%
inhibition at 187.5 µM [2, 5]: 87%
inhibition at 375 µM [2, 5]: 94%
inhibition at 750 µM [2, 5]: 102%

N#CC(c1ccc(Cl)cc1)c1c(Cl)cc(-n2ncc(=O)[nH]c2=O)cc1Cl (stereo not drawn) [diclazuril]
inhibition at 0.49 µM ([1]; at 0.49 μM, read-out: Percentage inhibition Hs ProRS): 0.05%
inhibition at 0.98 µM ([1]; at 0.98 μM, read-out: Percentage inhibition Hs ProRS): -0.02%
inhibition at 1.95 µM ([1]; at 1.95 μM, read-out: Percentage inhibition Hs ProRS): 0.08%
inhibition at 3.91 µM ([1]; at 3.91 μM, read-out: Percentage inhibition Hs ProRS): 0.28%
inhibition at 7.81 µM ([1]; at 7.81 μM, read-out: Percentage inhibition Hs ProRS): 0.42%
inhibition at 15.63 µM ([1]; at 15.63 μM, read-out: Percentage inhibition Hs ProRS): 0.09%
inhibition at 31.25 µM ([1]; at 31.25 μM, read-out: Percentage inhibition Hs ProRS): 0.4%
inhibition at 62.5 µM ([1]; at 62.50 μM, read-out: Percentage inhibition Hs ProRS): 0.07%
inhibition at 125 µM ([1]; at 125 μM, read-out: Percentage inhibition Hs ProRS): 0.68%
inhibition at 250 µM ([1]; at 250 μM, read-out: Percentage inhibition Hs ProRS): 5.06%
inhibition at 500 µM ([1]; at 500 μM, read-out: Percentage inhibition Hs ProRS): 9.51%
inhibition at 0.49 µM [2, 5]: 0.21%
inhibition at 0.98 µM [2, 5]: -1.18%
inhibition at 1.95 µM [2, 5]: -0.74%
inhibition at 3.91 µM [2, 5]: -0.59%
inhibition at 7.81 µM [2, 5]: 2.35%
inhibition at 15.63 µM [2, 5]: 2.75%
inhibition at 31.25 µM [2, 5]: 7.77%
inhibition at 62.5 µM [2, 5]: 19.5%
inhibition at 125 µM [2, 5]: 43%
inhibition at 250 µM [2, 5]: 73.7%
inhibition at 500 µM [2, 5]: 80.2%

N[C@@H](COc1cccc2c(-c3ccncc3)c(-c3cccc(NC(=O)Nc4ccccc4)c3)nn12)c1ccccc1 [TCMDC-135512]
inhibition at 0.03 µM [1, 3]: -0.42%
inhibition at 0.09 µM [1, 4]: 0.03%
inhibition at 0.28 µM [1, 4]: -0.52%
inhibition at 0.83 µM [1, 4]: -0.24%
inhibition at 2.5 µM [1, 4]: -0.12%
inhibition at 7.5 µM [1, 4]: -0.42%
inhibition at 22.5 µM [1, 4]: -0.2%
inhibition at 0.28 µM [2, 5]: 2.37%
inhibition at 0.03 µM [2, 5]: 1.13%
inhibition at 0.09 µM [2, 5]: 2.63%
inhibition at 0.83 µM [2, 5]: 3.62%
inhibition at 2.5 µM [2, 5]: 11.8%
inhibition at 7.5 µM [2, 5]: 40.4%
inhibition at 22.5 µM [2, 5]: 56.8%

Cc1ccc(-c2oc(N)c(C#N)c2-c2ccc(C)cc2)cc1 [SJ000368256]
inhibition at 0.12 µM ([1]; at 0.12 μM (30 μM series), read-out: Percentage inhibition Hs ProRS): -0.1%
inhibition at 0.37 µM ([1]; at 0.37 μM, read-out: Percentage inhibition Hs ProRS): 0.01%
inhibition at 1.46 µM ([1]; at 1.46 μM (30 μM series), read-out: Percentage inhibition Hs ProRS): -0.15%
inhibition at 3.33 µM ([1]; at 3.33 μM, read-out: Percentage inhibition Hs ProRS): 0.06%
inhibition at 10 µM ([1]; at 10.00 μM, read-out: Percentage inhibition Hs ProRS): 0.08%
inhibition at 30 µM ([1]; at 30.00 μM, read-out: Percentage inhibition Hs ProRS): 0.41%
inhibition at 0.12 µM [2, 5]: -0.29%
inhibition at 0.37 µM [2, 5]: -0.09%
inhibition at 1.46 µM [2, 5]: -0.33%
inhibition at 3.33 µM [2, 5]: 0.44%
inhibition at 10 µM [2, 5]: 0.96%
inhibition at 30 µM [2, 5]: 39.7%

CCn1nc(-c2ccc(C(=O)OC)cc2)nc2c(=O)n(C)c(=O)nc1-2 [MMV306025]
inhibition at 0.03 µM ([1]; at 0.03 μM (MMV306025 series), read-out: Percentage inhibition Hs ProRS): 0.3%
inhibition at 0.06 µM ([1]; at 0.06 μM, read-out: Percentage inhibition Hs ProRS): -0.07%
inhibition at 0.12 µM ([1]; at 0.12 μM (MMV306025 series), read-out: Percentage inhibition Hs ProRS): 0.1%
inhibition at 0.23 µM ([1]; at 0.23 μM, read-out: Percentage inhibition Hs ProRS): 0.67%
inhibition at 0.47 µM ([1]; at 0.47 μM, read-out: Percentage inhibition Hs ProRS): 4.1%
inhibition at 0.94 µM ([1]; at 0.94 μM, read-out: Percentage inhibition Hs ProRS): 14.9%
inhibition at 1.88 µM ([1]; at 1.88 μM, read-out: Percentage inhibition Hs ProRS): 21.6%
inhibition at 0.03 µM [2, 5]: -0.55%
inhibition at 0.06 µM [2, 5]: -0.04%
inhibition at 0.12 µM [2, 5]: 0.62%
inhibition at 0.23 µM [2, 5]: 4.5%
inhibition at 0.47 µM [2, 5]: 21.8%
inhibition at 0.94 µM [2, 5]: 28.4%
inhibition at 1.88 µM [2, 5]: 30%
inhibition at 2.5 µM [2, 5]: 72.8%
